16 compounds from patent US12252481B2, “Anti-viral compounds” (Aligos Therapeutics, Inc., priority 2021, dated 2025) can be followed below.

Assay [1] concerns the target T1, human cathepsin L (Homo sapiens, UniProt P07711).
T1 construct: purchased R&D Systems
The experiment in a line: Cathepsin L assay (Z-FR-AMC fluorescence). The format is biochemical. The conditions noted are these: 10 pM human cathepsin L, 30 mins preincubation, Z-FR-AMC 2 μM. How it is done:
For the cathepsin L assay, 10 pM of human cathepsin L (R&D Systems; Minneapolis, MN) was preincubated for 30 mins with test compounds. Reactions were initiated by the addition of a peptide substrate Z—FR-AMC (final concentration 2 μM, Anaspec; Fremont, CA). Fluorescence was measured at 2-minute intervals for 30 mins using a 355/460 excitation/emission filter module on an Envision plate reader (Perkin Elmer; Waltham, MA). The IC50 values were calculated for each assay by fitting the curves using a four-parameter equation in GraphPad Prism.

In assay [2] the target is T2, SARS-Cov-2 3CLpro (Severe acute respiratory syndrome coronavirus 2, UniProt P0DTD1).
T2 construct: 3CLpro and HRV3C was added using a Multidrop Combi
The experiment in a line: biochemical. The conditions noted are these: 3CLpro, 30 mins preincubation, SAMDI-MS; read-out: SARS-Cov-2 IC50 (class).

For assay [3], the target named is T3, HRV3C (Human rhinovirus 14, UniProt P03303).
T3 construct: 3CLpro and HRV3C was added using a Multidrop Combi
Briefly: biochemical. Further details: species or system HRV. The conditions noted are these: HRV3C, 30 mins preincubation, SAMDI-MS; read-out: HRV IC50 (bound).

Assay [4] concerns B.1.1.7 lineage SARS-CoV-2. Briefly: microbe, parasite or virus in culture. The format is cell-based. The conditions noted are these: Severe acute respiratory syndrome coronavirus 2, 96 h; read-out: A549-dual_ACE2_TMPRSS2 (EC50).
The test system of assay [5] is human beta-coronavirus OC43. The experiment in a line: OC43 coronavirus antiviral assay in HeLa cells (cytopathic effect, cell-titer-glo). The conditions noted are these: Betacoronavirus 1, OC43, HeLa, 144 h, 6 days at 33° C., read-out: EC50 (class). Type of assay: cell-based. (In general: Damage to the host cells serves as the signal in cytopathic effect assays.)

T1 sequence (P07711 114-333): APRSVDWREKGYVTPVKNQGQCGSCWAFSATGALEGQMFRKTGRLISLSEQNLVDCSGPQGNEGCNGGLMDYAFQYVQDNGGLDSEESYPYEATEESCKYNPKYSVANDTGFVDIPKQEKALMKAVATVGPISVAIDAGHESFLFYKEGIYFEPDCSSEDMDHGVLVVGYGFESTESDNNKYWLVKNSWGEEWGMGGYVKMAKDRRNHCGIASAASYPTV
T3 sequence (P03303 1538-1719): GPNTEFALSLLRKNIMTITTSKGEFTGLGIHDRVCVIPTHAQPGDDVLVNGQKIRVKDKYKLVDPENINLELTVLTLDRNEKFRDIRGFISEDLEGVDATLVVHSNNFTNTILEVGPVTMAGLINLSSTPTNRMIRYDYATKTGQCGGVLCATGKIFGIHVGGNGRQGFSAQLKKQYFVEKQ

In general, IC50 refers to the midpoint of a concentration-inhibition curve. A word on the EC50: it is the concentration giving half of the maximal effect. For `CC(C)(C)[C@H](NC(=O)C(F)(F)F)C(=O)N1C[C@H]2[C@@H]([C@H]1C(=O)N[C@H](C#N)C[C@@H]1Oc3ccncc3NC1=O)[C@H]1C=C[C@@H]2C1` [Compound 109, (1S,3aR,4S,7R,7aS)-N-((S)-1-cyano-2-((S)-3-oxo-3,4-dihydro-2H-pyrido[4,3-b][1,4]oxazin-2-yl)ethyl)-2-((S)-3,3-dimethyl-2-(2,2,2-trifluoroacetamido)butanoyl)-2,3,3a,4,7,7a-hexahydro-1H-4,7-methanoisoindole-1-carboxamide], the values for the IC50 in assay [1], in assay [2] and in assay [3] were no less than 10 µM, less than 20 nM and greater than 500 nM, respectively. The EC50 in assay [4] and in assay [5] was less than 100 nM each time.
As for `CC(C)(C)[C@H](NC(=O)C(F)(F)F)C(=O)N1C[C@H]2[C@@H]([C@H]1C(=O)N[C@H](C#N)CC1CC3(CC(F)(F)C3)NC1=O)[C@H]1C=C[C@@H]2C1` (mixture of isomers) [Example 83, (1R,2S,3S,6R,7S)—N-[(1S)-1-cyano-2-{2,2-difluoro-6-oxo-5-azaspiro[3.4]octan-7-yl}ethyl]-4-[(2S)-3,3-dimethyl-2-(2,2,2-trifluoroacetamido)butanoyl]-4-azatricyclo[5.2.1.0^{2,6}]dec-8-ene-3-carboxamide], the figures for the IC50 in assay [1], in assay [2] and in assay [3] were no less than 10 µM, less than 20 nM and greater than 10000 nM, respectively. Also, the EC50 in assay [4] and in assay [5] was less than 100 nM in each case.
`CC(C)(C)[C@H](NC(=O)C1(F)CCC1)C(=O)N1C[C@H]2[C@@H]([C@H]1C(=O)N[C@H](C#N)C[C@@H]1CCNC1=O)[C@H]1C=C[C@@H]2C1` [Compound 65, (1S,3aR,4S,7R,7aS)-N-((S)-1-cyano-2-((S)-2-oxopyrrolidin-3-yl)ethyl)-2-((S)-2-(1-fluorocyclobutane-1-carboxamido)-3,3-dimethylbutanoyl)-2,3,3a,4,7,7a-hexahydro-1H-4,7-methanoisoindole-1-carboxamide]: the values for the IC50 in assay [1], in assay [2] and in assay [3] were no less than 10 µM, less than 20 nM and greater than 10000 nM, respectively. The EC50 in assay [4] and in assay [5] was less than 100 nM each time.
As to `CC(C)(C)[C@H](NC(=O)C(F)(F)F)C(=O)N1C[C@H]2[C@@H]([C@H]1C(=O)N[C@H](C#N)C[C@@H]1CCNC1=O)[C@H]1CC[C@@H]2C1(F)F` [Example 92, (1S,3aS,4S,7R,7aR)—N-((S)-1-cyano-2-((S)-2-oxopyrrolidin-3-yl)ethyl)-2-((S)-3,3-dimethyl-2-(2,2,2-trifluoroacetamido)butanoyl)-8,8-difluorooctahydro-1H-4,7-methanoisoindole-1-carboxamide], the IC50 in assay [2] is 20 to 200 nM; in assay [3] it was greater than 500 nM. For the same compound, the half-maximal effective concentration (EC50) in assay [4] and in assay [5] was 100 to 1000 nM in each case.
For the compound `CC(C)(OCC1CC1)[C@H](NC(=O)C(F)(F)C(F)(F)F)C(=O)N1C[C@H]2[C@@H]([C@H]1C(=O)N[C@H](C#N)C[C@@H]1CCNC1=O)[C@H]1C=C[C@@H]2C1` [Compound 103], the IC50 is less than 20 nM in assay [2] and greater than 500 nM in assay [3]. Besides, the EC50 in assay [4] and in assay [5] was less than 100 nM each time.
Take `CC1(C)NC(=O)[C@H](C[C@@H](C#N)NC(=O)[C@@H]2[C@@H]3[C@H](CN2C(=O)[C@@H](NC(=O)C(F)(F)F)C(C)(C)C)[C@@H]2C=C[C@H]3C2)O1` [Compound 105, (1S,3aR,4S,7R,7aS)-N-((S)-1-cyano-2-((S)-2,2-dimethyl-4-oxooxazolidin-5-yl)ethyl)-2-((S)-3,3-dimethyl-2-(2,2,2-trifluoroacetamido)butanoyl)-2,3,3a,4,7,7a-hexahydro-1H-4,7-methanoisoindole-1-carboxamide]: the IC50 is 20 to 200 nM in assay [2] and greater than 500 nM in assay [3]. For the same compound, the EC50 in assay [4] was less than 100 nM; in assay [5] it was 100 to 1000 nM.
On the same counts, the results for `CC(C)(C)[C@H](NC(=O)C(F)(F)C(F)(F)F)C(=O)N1C[C@H]2[C@@H]([C@H]1C(=O)N[C@H](C#N)C[C@@H]1OCCNC1=O)[C@H]1C=C[C@@H]2C1` [Compound 115, (1S,3aR,4S,7R,7aS)-N-((S)-1-cyano-2-((S)-3-oxomorpholin-2-yl)ethyl)-2-((S)-3,3-dimethyl-2-(2,2,3,3,3 pentafluoropropanamido)butanoyl)-2,3,3a,4,7,7a-hexahydro-1H-4,7-methanoisoindole-1-carboxamide] are less than 20 nM, greater than 500 nM, less than 100 nM and less than 100 nM.
Regarding `CC(C)(C)[C@H](NC(=O)C(F)(F)C(F)(F)F)C(=O)N1C[C@@H]2[C@H]3C[C@@H]([C@@H]2[C@H]1C(=O)N[C@H](C#N)C[C@@H]1CCNC1=O)[C@H](F)C3` [Example 87, (1S,3aR,4S,6R,7S,7aR)—N-((S)-1-cyano-2-((S)-2-oxopyrrolidin-3-yl)ethyl)-2-((S)-3,3-dimethyl-2-(2,2,3,3,3-pentafluoropropanamido)butanoyl)-6-fluorooctahydro-1H-4,7-methanoisoindole-1-carboxamide], the IC50 was less than 20 nM in assay [2] and greater than 500 nM in assay [3]. Besides, the EC50 in assay [4] and in assay [5] was less than 100 nM throughout.
As to `N#C[C@H](C[C@@H]1CCNC1=O)NC(=O)[C@@H]1[C@@H]2[C@H](CN1C(=O)[C@H](CC1CCC1)NC(=O)C(F)(F)F)[C@@H]1C=C[C@H]2C1` [Example 95], the IC50 in assay [2] is less than 20 nM; in assay [3], greater than 10000 nM. The EC50 in assay [4] and in assay [5] was less than 100 nM in each case.
Consider `CC(C)(C)[C@H](NC(=O)C(F)(F)F)C(=O)N1C[C@@H]2[C@H]3C[C@H](C[C@@H]3F)[C@@H]2[C@H]1C(=O)N[C@H](C#N)C[C@@H]1CCNC1=O` [Example 96], for which the IC50 in assay [2] was 20 to 200 nM; in assay [3], greater than 500 nM. The EC50 in assay [4] and in assay [5] was 100 to 1000 nM in each case.
On to `C[C@@H](OC(F)F)[C@H](NC(=O)C(F)(F)F)C(=O)N1C[C@H]2[C@@H]([C@H]1C(=O)N[C@H](C#N)C[C@@H]1CCNC1=O)[C@H]1C=C[C@@H]2C1` [Example 98, (1S,3aR,4S,7R,7aS)-N-((S)-1-cyano-2-((S)-2-oxopyrrolidin-3-yl)ethyl)-2-(O-(difluoromethyl)-N-(2,2,2-trifluoroacetyl)-L-threonyl)-2,3,3a,4,7,7a-hexahydro-1H-4,7-methanoisoindole-1-carboxamide], for which the IC50 in assay [2] is less than 20 nM; in assay [3] it was greater than 500 nM. Besides, the EC50 in assay [4] and in assay [5] was less than 100 nM throughout.
Turning to `CC(C)(C)[C@H](NC(=O)C(F)(F)F)C(=O)N1C[C@H]2[C@@H]([C@H]1C(=O)N[C@H](C#N)CC1C[C@H](C(F)(F)F)NC1=O)[C@H]1C=C[C@@H]2C1` (stereo partly drawn) [Compound 108, (1R,2S,3S,6R,7S)—N-[(1S)-1-cyano-2-[(5R)-2-oxo-5-(trifluoromethyl)pyrrolidin-3-yl]ethyl]-4-[(2S)-3,3-dimethyl-2-(2,2,2-trifluoroacetamido)butanoyl]-4-azatricyclo[5.2.1.0^{2,6}]dec-8-ene-3-carboxamide], the IC50 in assay [2] is less than 20 nM; in assay [3], greater than 500 nM. The EC50 in assay [4] and in assay [5] was less than 100 nM in each case.
For `CC(C)(C)[C@H](NC(=O)C(F)(F)F)C(=O)N1C[C@H]2[C@@H]([C@H]1C(=O)N[C@H](C#N)C[C@@H]1CCNC1=O)[C@H]1C=C[C@@H]2C1=O` [Example 89, (1R,2R,3S,6S,7S)—N-[(1S)-1-cyano-2-[(3S)-2-oxopyrrolidin-3-yl]ethyl]-4-[(2S)-3,3-dimethyl-2-(2,2,2-trifluoroacetamido)butanoyl]-10-oxo-4-azatricyclo[5.2.1.0^{2,6}]dec-8-ene-3-carboxamide], the IC50 in assay [2] was less than 20 nM; in assay [3], greater than 10000 nM. For the same compound, the EC50 in assay [4] and in assay [5] was 100 to 1000 nM in each case.
Consider `COC1(C(=O)N[C@H](C(=O)N2C[C@H]3[C@@H]([C@H]2C(=O)N[C@H](C#N)C[C@@H]2CCNC2=O)[C@H]2C=C[C@@H]3C2)C(C)(C)C)CC1` [Compound 126], for which the 50% inhibitory concentration (IC50) in assay [2] was 20 to 200 nM; in assay [3], greater than 500 nM. Moreover, the EC50 in assay [4] and in assay [5] was 100 to 1000 nM throughout.
As for `COC1(C(=O)N[C@H](C(=O)N2C[C@H]3[C@@H]([C@H]2C(=O)N[C@H](C#N)C[C@@H]2CCNC2=O)[C@H]2C=C[C@@H]3C2)C(C)(C)C)CCC1` [Compound 127], the figures for the IC50 in assay [2] and in assay [3] were 20 to 200 nM and greater than 500 nM, respectively. Also, the EC50 was less than 100 nM in assay [4] and 100 to 1000 nM in assay [5].
On the same counts, the results for `CC(C)(C)[C@H](NC(=O)C(F)(F)F)C(=O)N1C[C@H]2[C@@H]([C@H]1C(=O)N[C@H](C#N)C[C@@H]1Oc3cccnc3NC1=O)[C@H]1C=C[C@@H]2C1` [Compound 112, (1S,3aR,4S,7R,7aS)-N-((S)-1-cyano-2-((S)-3-oxo-3,4-dihydro-2H-pyrido[3,2-b][1,4]oxazin-2-yl)ethyl)-2-((S)-3,3-dimethyl-2-(2,2,2-trifluoroacetamido)butanoyl)-2,3,3a,4,7,7a-hexahydro-1H-4,7-methanoisoindole-1-carboxamide] are less than 20 nM, greater than 500 nM, less than 100 nM and 100 to 1000 nM.
